Results reported in ChEMBL document CHEMBL5360621, “Discovery and Optimization of a STING Agonist Platform for Application in Antibody Drug Conjugates” (J Med Chem, 2023).

Target: Stimulator of interferon genes protein (Homo sapiens, UniProt Q86WV6)
Experiment: Agonist activity at STING in digitonin-permeabilized human THP1-Dual cells expressing NF-kappaB-SEAP and IRF-Lucia luciferase reporter assessed as increase in IRF-luciferase activation incubated for 24 hrs by QUANTI-Luc assay
Type: cell-based

Stimulator of interferon genes protein, sequence (Q86WV6 whole entry): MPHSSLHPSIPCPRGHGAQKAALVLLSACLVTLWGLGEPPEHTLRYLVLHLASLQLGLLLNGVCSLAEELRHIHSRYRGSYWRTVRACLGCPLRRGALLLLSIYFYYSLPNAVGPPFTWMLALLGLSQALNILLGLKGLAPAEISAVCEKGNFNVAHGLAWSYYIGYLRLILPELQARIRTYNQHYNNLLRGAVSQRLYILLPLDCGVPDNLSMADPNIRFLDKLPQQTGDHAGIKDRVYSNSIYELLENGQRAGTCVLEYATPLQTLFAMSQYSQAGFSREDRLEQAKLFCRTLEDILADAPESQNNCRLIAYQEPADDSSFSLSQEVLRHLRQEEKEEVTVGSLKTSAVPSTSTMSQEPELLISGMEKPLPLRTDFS

| EC50 | SMILES |
| --- | --- |
| 10 nM | CCn1nc(C)cc1C(=O)Nc1nc2cc(C(N)=O)cc(OC)c2n1C/C=C/Cn1c(NC(=O)c2cc(C)nn2CC)nc2cc(C(N)=O)cc(OCCCN)c21 |
| 5 nM | CCn1nc(C)cc1C(=O)/N=c1\sc2cc(C(N)=O)cc(OC)c2n1C/C=C/Cn1c(NC(=O)c2cc(C)nn2CC)nc2cc(C(N)=O)cc(OCCCO)c21 |
| 9 nM | CCc1nc(C)oc1C(=O)Nc1nc2cc(C(N)=O)cc(OC)c2n1C/C=C/Cn1c(NC(=O)c2cc(C)nn2CC)nc2cc(C(N)=O)cc(OCCCO)c21 |
| 20 nM | CCc1nc(C)oc1C(=O)Nc1nc2cc(C(N)=O)cc(OCCCO)c2n1C/C=C/Cn1/c(=N/C(=O)c2cc(C)nn2CC)sc2cc(C(N)=O)cc(OC)c21 |
| 7 nM | CCc1nc(C)oc1C(=O)Nc1nc2cc(C(N)=O)cnc2n1C/C=C/Cn1c(NC(=O)c2oc(C)nc2CC)nc2cc(C(N)=O)cc(OCCCO)c21 |
| 90 nM | CCc1nc(C)oc1C(=O)/N=c1\sc2cc(C(N)=O)cnc2n1C/C=C/Cn1c(NC(=O)c2oc(C)nc2CC)nc2cc(C(N)=O)cc(OCCCO)c21 |
| > 100000 nM | COc1cc(C(N)=O)cc2nc(NC(=O)c3cnc(C)n3C)n(C/C=C/Cn3c(NC(=O)c4cnc(C)n4C)nc4cc(C(N)=O)cc(OCCCO)c43)c12 |
| 5000 nM | CCc1nn(C)cc1C(=O)Nc1nc2cc(C(N)=O)cc(OC)c2n1C/C=C/Cn1c(NC(=O)c2cn(C)nc2CC)nc2cc(C(N)=O)cc(OCCCO)c21 |
| 60 nM | CCn1nc(C)cc1C(=O)Nc1nc2cc(C(N)=O)cnc2n1C/C=C/Cn1c(NC(=O)c2cc(C)nn2CC)nc2cc(C(N)=O)cc(OCCCO)c21 |
| 1 nM | CCc1nc(C)oc1C(=O)Nc1nc2cc(C(N)=O)cc(OC)c2n1C/C=C/Cn1c(NC(=O)c2oc(C)nc2CC)nc2cc(C(N)=O)cc(OCCCO)c21 |
| 150 nM | CCc1nc(C)oc1C(=O)/N=c1\sc2cc(C(N)=O)cc(OCCCO)c2n1C/C=C/Cn1c(NC(=O)c2oc(C)nc2CC)nc2cc(C(N)=O)cnc21 |
| > 100000 nM | COc1cc(C(N)=O)cc2nc(NC(=O)c3cnc(C)o3)n(C/C=C/Cn3c(NC(=O)c4cnc(C)o4)nc4cc(C(N)=O)cc(OCCCO)c43)c12 |
| 270 nM | CCc1nc(C)sc1C(=O)Nc1nc2cc(C(N)=O)cc(OC)c2n1C/C=C/Cn1c(NC(=O)c2sc(C)nc2CC)nc2cc(C(N)=O)cc(OCCCO)c21 |
| > 100000 nM | COc1cc(C(N)=O)cc2nc(NC(=O)c3nc(C)oc3C)n(C/C=C/Cn3c(NC(=O)c4nc(C)oc4C)nc4cc(C(N)=O)cc(OCCCO)c43)c12 |
| 4 nM | CCc1nc(C)oc1C(=O)Nc1nc2cc(C(N)=O)cc(OCCCO)c2n1C/C=C/Cn1c(NC(=O)c2cc(C)nn2CC)nc2cc(C(N)=O)cnc21 |
| 60 nM | CCc1nc(C)oc1C(=O)/N=c1\sc2cc(C(N)=O)cc(OC)c2n1C/C=C/Cn1c(NC(=O)c2oc(C)nc2CC)nc2cc(C(N)=O)cc(OCCCO)c21 |
| 1 nM | CCn1nc(C)cc1C(=O)Nc1nc2cc(C(N)=O)cc(OC)c2n1C/C=C/Cn1c(NC(=O)c2cc(C)nn2CC)nc2cc(C(N)=O)cc(OCCCO)c21 |
| 20 nM | CCc1nc(C)sc1C(=O)Nc1nc2cc(C(N)=O)cc(OCCCO)c2n1C/C=C/Cn1c(NC(=O)c2cc(C)nn2CC)nc2cc(C(N)=O)cc(OC)c21 |
| > 100000 nM | CCc1ncoc1C(=O)/N=c1\sc2cc(C(N)=O)cc(OC)c2n1C/C=C/Cn1c(NC(=O)c2ocnc2CC)nc2cc(C(N)=O)cc(OCCCO)c21 |
| 20 nM | CCc1nn(C)cc1C(=O)Nc1nc2cc(C(N)=O)cc(OCCCO)c2n1C/C=C/Cn1c(NC(=O)c2cc(C)nn2CC)nc2cc(C(N)=O)cc(OC)c21 |
| 18 nM | CCn1nc(C)cc1C(=O)Nc1nc2cc(C(N)=O)cc(OC)c2n1C/C=C/Cn1c(NC(=O)c2cc(C)nn2CC)nc2cc(C(N)=O)cc(OCCCC(=O)O)c21 |
| > 100000 nM | CCn1nc(C)cc1C(=O)/N=c1\sc2cc(C(N)=O)cc(OC)c2n1C/C=C/Cn1c(NC(=O)c2oc(C)nc2C)nc2cc(C(N)=O)cc(OCCCO)c21 |
| > 100000 nM | CCc1nc(C)oc1C(=O)Nc1nc2cc(C(N)=O)cc(OC)c2n1C/C=C/Cn1c(NC(=O)c2cnc(C)o2)nc2cc(C(N)=O)cc(OCCCO)c21 |
| 3200 nM | CCn1nc(C)cc1C(=O)Nc1nc2cc(C(N)=O)cnc2n1C/C=C/Cn1c(NC(=O)c2oc(C)nc2C)nc2cc(C(N)=O)cc(OCCCO)c21 |
| 1 nM | CCc1nc(C)oc1C(=O)Nc1nc2cc(C(N)=O)cc(OCCCO)c2n1C/C=C/Cn1c(NC(=O)c2cc(C)nn2CC)nc2cc(C(N)=O)cc(OC)c21 |
